Experimental data from paper PMC10453993 (Emerging Microbes & Infections, 2023).
Read-outs that look alike come from different tables or passages of the source.

Test system: SARS-CoV-2 VOCs
Assay: microbe, parasite or virus in culture
Assay type: cell-based
[1] = Severe acute respiratory syndrome coronavirus 2, read-out: EC50, dsRNA staining
[2] = Severe acute respiratory syndrome coronavirus 2, read-out: EC50, nucleocapsid staining

## CN(C)c1ccc(N(Cc2cc(Cl)cs2)C(=O)Cc2cncc3cccc(O)c23)cc1 [C5a, N-((4-chlorothiophen-2-yl)methyl)-N-(4-(dimethylamino)phenyl)-2-(5-hydroxyisoquinolin-4-yl)acetamide]
[1]
  EC50: 28 to 95 nM
[2]
  EC50: 30 to 69 nM

## CN(C)c1ccc(N(Cc2cc(Cl)cs2)C(=O)Cc2cncc3ccccc23)cc1 [C5, N-((4-chlorothiophen-2-yl)methyl)-N-(4-(dimethylamino)phenyl)-2-(isoquinolin-4-yl)acetamide]
[1]
  EC50: 200 to 700 nM
[2]
  EC50: 100 to 300 nM

## CC(C)(C)[C@H](NC(=O)C(F)(F)F)C(=O)N1C[C@H]2[C@@H]([C@H]1C(=O)N[C@H](C#N)C[C@@H]1CCNC1=O)C2(C)C [C7, Nirmatrelvir, reference compound]
Severe acute respiratory syndrome coronavirus 2, Calu-3
  EC50: 1300 nM
[1]
  EC50: 400 to 700 nM
[2]
  EC50: 300 to 400 nM
